Test results published in US8232308B2, “Methods for treating a disease in which Rho kinase is involved” (UBE Industries, Ltd., priority 2003, dated 2012).
Counter-ions that a name gives are not always drawn.

Tests used:
activated ROCK II = target: T1, activated ROCK II (Rattus norvegicus, UniProt Q62868); assay: Test for Evaluation of Inhibiting Activity to Rho Kinase; type: biochemical; settings: S6 Kinase Substrate Peptide, [γ-32P]ATP, 30° C. for 15 minutes, Ki=IC50/(1+S/Km)
T1 construct: purchased Upstate Biotechnology 14-338
T1 sequence (Q62868 11-550 limits assumed): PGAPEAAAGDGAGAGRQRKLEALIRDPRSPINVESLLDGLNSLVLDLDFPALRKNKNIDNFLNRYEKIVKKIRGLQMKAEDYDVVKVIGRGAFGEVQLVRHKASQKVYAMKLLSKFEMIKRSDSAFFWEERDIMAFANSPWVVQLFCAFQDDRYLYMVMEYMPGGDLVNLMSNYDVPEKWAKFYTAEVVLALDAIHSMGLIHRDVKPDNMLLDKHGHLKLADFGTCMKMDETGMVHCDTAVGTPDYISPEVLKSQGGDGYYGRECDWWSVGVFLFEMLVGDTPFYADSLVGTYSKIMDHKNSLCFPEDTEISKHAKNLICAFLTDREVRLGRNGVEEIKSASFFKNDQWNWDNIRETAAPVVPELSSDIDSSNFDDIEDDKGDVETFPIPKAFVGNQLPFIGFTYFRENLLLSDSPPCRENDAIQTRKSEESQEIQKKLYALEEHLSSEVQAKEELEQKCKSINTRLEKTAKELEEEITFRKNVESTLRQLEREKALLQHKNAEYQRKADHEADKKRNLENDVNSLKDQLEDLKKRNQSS
Description: In order to find the utility of the present invention compound, a Rho kinase inhibiting activity of the present invention compound was evaluated. The details thereof will be illustrated under the item of “Pharmacological Test (Test for Evaluation of Rho Kinase Inhibiting Activity)” in the Examples which will be mentioned later. The evaluation of the Rho kinase inhibiting activity of the present invention compound was carried out in accordance with the methods mentioned in J. Biol. Chem., 274, 32418 (1999) by Kaibuchi, et al. and mentioned in the instruction manual for use attached to the commercially available activated ROCK II [Upstate Biotechnology, Catalog No. 14-338 (5 units/50 μl)].
A. Test for Evaluation of Inhibiting Activity to Rho Kinase
In order to test the usefulness of the compounds of the present invention as a Rho kinase inhibitor, inhibiting activities of the compounds of the present invention to Rho kinase were evaluated and investigated in accordance with the methods of Kaibuchi, et al. mentioned in J. Biol. Chem., 274, 32418, 1999 and also with the methods mentioned in the instruction manual for use attached to commercially available activated ROCK II [Upstate Biotechnology, Catalog No. 14-338, (5 unite/50 μl)]. With regard to the test compounds, the compounds 5-1 to 5-73 (except the compounds 5-2, 5-9, 5-18, 5-37 and 5-38) were used.
A buffer was prepared so as to make tris(hydroxymethyl)aminomethane (Tris) (pH 7.5), 50 mM, ethyleneglycol bis(β-aminoethyl ether)-N,N,N′,N′-tetraacetic acid (EGTA), 2 mM, ethylenediaminetetraacetic acid (EDTA), 1 mM, magnesium chloride (MgCl2) 5 mM, β-glycerol phosphate, 5 mM, and dithiothreitol (DTT), 2 mM, by mixing them.
A mixed liquid of a 10 mM ATP solution with a commercially available [γ-^32P]ATP solution [NEN, Code No. NEG-002A] was diluted with the buffer to prepare a 300 μM ATP [γ-^32P]ATP solution.
A Commercially Available Activated ROCK II [Upstate Biotechnology, Catalog No. 14-338, (5 Units/50 μl)] was diluted to a concentration of 1/100 with the buffer to prepare an activated ROCK II solution.
A S6 Kinase Substrate Peptide [Upstate Biotechnology, Catalog No. 12-124,] (2 mg) was dissolved in distilled water to prepare a 1 mM substrate solution.
A test compound was dissolved in 10% aqueous dimethyl sulfoxide solution.
1) The test compound solution is placed in a microtube.
2) The 300 μM ATP [γ-^32P]ATP solution is added to the microtube followed by cooling to 4° C.
3) After that, a permanently activated ROCK II solution, 1 mM substrate solution and buffer are added to each microtube in that order, and the whole is mixed and cooled again at 4° C.
4) The microtube is placed in an incubator (30° C.) and the mixture is subjected to reaction for 15 minutes.
5) After cooling to 4° C., a 250 mM phosphoric acid solution (5 μl) is added to each microtube to stop the reaction.
6) The reaction solution (30 μl) is taken out from each microtube and spotted on a filter paper (Whatman P81) so that the reaction product (phosphorylated substrate) is adsorbed to the filter paper.
7) The filter paper is transferred to a beaker in which a 75 mM phosphoric acid solution is placed and shaken for 5 minutes so that unreacted [γ-^32P]AfP is washed out. The washing operation as such is carried out four times.
8) After that, the filter paper is dipped in ethanol to dehydrate and energy amount (radioactivity) of the reaction product adsorbed to the filter paper is measured with a liquid scintillation counter.
The IC50 value was calculated by an XL-fit (IDBS).
The Ki value is calculated by the following formula. S is an ATP concentration contained in the reaction solution while Km is a Michaelis-Menten constant. Ki=IC50/(1+S/Km)

melting point | Ki (activated ROCK II) [nM] | SMILES
247 to 250 °C | – | CC(=O)n1ncc2cc(-c3ccc(C(C)(C)N)cc3)ccc21 (as salt: hydrochloride) [Compound 5-2, 1-Acetyl-5-[4-(1-amino-1-methylethyl)phenyl]-1H-indazole dihydrochloride]
228 to 235 °C (dec.) | – | CC(C)(N)c1ccc(-c2ccc3[nH]ncc3c2N)cc1 (as salt: hydrochloride) [Compound 5-5, 4-Amino-5-[4-(1-amino-1-methylethyl)phenyl]-1H-indazole trihydrochloride]
185 to 192 °C (dec.) | – | CC(C)(N)c1ccc(-c2ccc3[nH]ncc3c2NCc2ccccc2)cc1 (as salt: hydrochloride) [Compound 5-6, 5-[4-(1-Amino-1-methylethyl)phenyl]-4-benzylamino-1H-indazole dihydrochloride]
264 to 267 °C (dec.) | – | COC(=O)c1n[nH]c2ccc(-c3ccc(C(C)(C)N)cc3)cc12 (as salt: hydrochloride) [Compound 5-8, 5-[4-(1-Amino-1-methylethyl)phenyl]-3-methoxy-carbonyl-1H-indazole dihydrochloride]
274 to 280 °C (dec.) | – | CC(C)(N)c1ccc(-c2ccc3[nH]nc(C(=O)O)c3c2)cc1 (as salt: hydrochloride) [Compound 5-9, 5-[4-(1-Amino-1-methylethyl)phenyl]-3-carboxy-1H-indazole monohydrochloride]
220 to 222 °C (dec.) | – | CC(C)(N)c1ccc(-c2ccc3[nH]nc(N)c3c2)cc1 (as salt: hydrochloride) [Compound 5-11, 3-Amino-5-[4-(1-amino-1-methylethyl)phenyl]-1H-indazole trihydrochloride]
238 to 242 °C (dec.) | – | CC(C)(N)c1ccc(-c2ccc3[nH]nc(CO)c3c2)cc1 (as salt: hydrochloride) [Compound 5-14, 5-[4-(1-Amino-1-methylethyl)phenyl]-3-hydroxymethyl-1H-indazole dihydrochloride]
269 to 274 °C (dec.) | – | NCc1ccc(-c2ccc3[nH]ncc3c2[N+](=O)[O-])cc1 (as salt: hydrochloride) [Compound 5-19, 5-[4-(Aminomethyl)phenyl]-4-nitro-1H-indazole dihydrochloride]
234 to 237 °C | – | Nc1c(-c2ccc(C3(N)CCCC3)cc2)ccc2[nH]ncc12 (as salt: hydrochloride) [Compound 5-21, 4-Amino-5-[4-(1-aminocyclopentyl)phenyl]-1H-indazole dihydrochloride]
188 to 192 °C (dec.) | – | CN(C)c1c(-c2ccc(CN)cc2)ccc2[nH]ncc12 (as salt: hydrochloride) [Compound 5-23, 5-[4-(Aminomethyl)phenyl]-4-dimethylamino-1H-indazole trihydrochloride]
180 to 182 °C (dec.) | – | CC(N)c1ccc(-c2ccc3[nH]ncc3c2N(C)C)cc1 (stereo not drawn) (as salt: hydrochloride) [Compound 5-26, 5-[4-(1-Aminoethyl)phenyl]-4-dimethylamino-1H-indazole trihydrochloride]
162 to 166 °C (dec.) | – | C=Cc1c(-c2ccc(C(C)(C)N)cn2)ccc2[nH]ncc12 (as salt: hydrochloride) [Compound 5-30, 5-[5-(1-Amino-1-methylethyl)pyridin-2-yl]-4-vinyl-1H-indazole trihydrochloride]

More lines, now with the values behind:

SMILES | melting point | Ki (activated ROCK II) [nM]
CC(C)(N)c1ccc(-c2ccc3[nH]ncc3c2)nc1 (as salt: hydrochloride) [Compound 5-3, 5-[5-(1-Amino-1-methylethyl)pyridin-2-yl]-1H-indazole trihydrochloride] | 271 to 273 °C (dec.) | –
CC(C)(N)c1ccc(-c2ccc3[nH]ncc3c2[N+](=O)[O-])cc1 (as salt: hydrochloride) [Compound 5-4, 5-[4-(1-Amino-1-methylethyl)phenyl]-4-nitro-1H-indazole monohydrochloride] | 255 to 261 °C (dec.) | –
CNc1c(-c2ccc(C(C)(C)N)cc2)ccc2[nH]ncc12 (as salt: hydrochloride) [Compound 5-7, 5-[4-(1-Amino-1-methylethyl)phenyl]-4-methylamino-1H-indazole trihydrochloride] | 202 to 206 °C (dec.) | –
CC(C)(N)c1ccc(-c2ccc3[nH]nc(C(N)=O)c3c2)cc1 (as salt: hydrochloride) [Compound 5-10, 3-Aminocarbonyl-5-[4-(1-amino-1-methylethyl)phenyl]-1H-indazole monohydrochloride] | 258 to 261 °C (dec.) | –
CC(C)(N)c1ccc(-c2ccc3[nH]nc(C#N)c3c2)cc1 (as salt: hydrochloride) [Compound 5-13, 5-[4-(1-Amino-1-methylethyl)phenyl]-3-cyano-1H-indazole dihydrochloride] | 224 to 227 °C (dec.) | –
CN(C)c1c(-c2ccc(C(C)(C)N)cc2)ccc2[nH]ncc12 (as salt: hydrochloride) [Compound 5-16, 5-[4-(1-Amino-1-methylethyl)phenyl]-4-dimethylamino-1H-indazole trihydrochloride] | 219 to 224 °C (dec.) | –
CC(=O)Nc1c(-c2ccc(C(C)(C)N)cc2)ccc2[nH]ncc12 (as salt: hydrochloride) [Compound 5-18, 4-(N-Acetylamino)-5-[4-(1-amino-1-methylethyl)-phenyl]-1H-indazole dihydrochloride] | 218 to 221 °C | –
CCC(N)(CC)c1ccc(-c2ccc3[nH]ncc3c2N)cc1 (as salt: hydrochloride) [Compound 5-22, 4-Araino-5-[4-(1-amino-1-ethylpropyl)phenyl]-1H-indazole trihydrochloride] | 197 to 199 °C (dec.) | –
CN(C)c1c(-c2ccc(C3(N)CCCC3)cc2)ccc2[nH]ncc12 (as salt: hydrochloride) [Compound 5-24, 5-[4-(1-Aminocyclopentyl)phenyl]-4-dimethylamino-1H-indazole trihydrochloride] | 175 to 178 °C (dec.) | –
CC(C)(N)c1cnc(-c2ccc3[nH]ncc3c2)c(Cl)c1 (as salt: hydrochloride) [Compound 5-27, 5-[5-(1-Amino-1-methylethyl)-3-chloropyridin-2-yl]-1H-indazole trihydrochloride] | 179 to 182 °C | –
CCc1c(-c2ccc(C(C)(C)N)cn2)ccc2[nH]ncc12 (as salt: hydrochloride) [Compound 5-28, 5-[5-(1-Amino-1-methylethyl)pyridin-2-yl]-4-ethyl-1H-indazole trihydrochloride] | 247 to 255 °C (dec.) | –
CC(C)(N)c1ccc(-c2ccc3[nH]ncc3c2C2CC2)nc1 (as salt: hydrochloride) [Compound 5-29, 5-[5-(1-Amino-1-methylethyl)pyridin-2-yl]-4-cyclo-propyl-1H-indazole trihydrochloride] | 209 to 213 °C (dec.) | –
CCN(CC)c1c(-c2ccc(C(C)(C)N)cc2)ccc2[nH]ncc12 (as salt: hydrochloride) [Compound 5-31, 5-[4-(1-Amino-1-methylethyl)phenyl]-4-diethylamino-1H-indazole trihydrochloride] | 182 to 184 °C (dec.) | –
CCC(N)(CC)c1ccc(-c2ccc3[nH]ncc3c2OC2CC2)nc1 [Compound 5-71, 5-[5-(1-Amino-1-ethylpropyl)pyridin-2-yl]-4-cyclo-propyloxy-1H-indazole trihydrochloride] | – | 34
CCC(N)(CC)c1ccc(-c2ccc3[nH]ncc3c2OC(F)F)cc1 [Compound 5-72, 5-[4-(1-Amino-1-ethylpropyl)phenyl]-4-difluoro-methoxy-1H-indazole dihydrochloride] | – | 13
